pIC50: −log10 of the molar value. Activity calls are given as the source filed them. The rule behind the calls is not given here.
Tests used:
MDCK [1] = test: Anti-proliferative activity was evaluated by its ability to inhibit proliferation of MDCK-f3 (Madin-Darby canine kidney f3) cell line; format: functional, cell-based, Canis lupus familiaris
NIH3T3 [2] = test: Anti-proliferative activity was evaluated by its ability to inhibit proliferation of murine NIH3T3 fibroblasts; format: functional, cell-based, Mus musculus
REF [3] = test: Anti-proliferative activity was evaluated by its ability to inhibit proliferation of rat embryonic fibroblasts (REF); format: functional, cell-based
SW480 [4] = test: Anti-proliferative activity was evaluated by its ability to inhibit proliferation of SW480 cells; format: functional, cell-based, Homo sapiens
[5] = Inhibition of p21ras protein and Raf kinase in vitro using recombinant proteins; set-up: unit not given here
MDCK [6] = test: Anti-proliferative activity was evaluated by its ability to inhibit proliferation of MDCK cells; format: functional, cell-based, Canis lupus familiaris
[7] = target: T1, Cyclooxygenase (Homo sapiens) (UniProt P35354+P23219); conditions: Ovis aries
SW480 [8] = test: Anti-proliferative activity was evaluated by its ability to inhibit proliferation of SW480 cells; na means Not active; format: functional, cell-based, Homo sapiens
[9] = Inhibition of p21ras protein and Raf kinase in vitro using recombinant proteins (inactive)
MDCK [10] = test: Anti-proliferative activity was evaluated by its ability to inhibit proliferation of MDCK-f3 (Madin-Darby canine kidney f3) cell line; na means Not active; format: functional, cell-based, Canis lupus familiaris
MDCK [11] = test: Anti-proliferative activity was evaluated by its ability to inhibit proliferation of MDCK cells; na means Not active; format: functional, cell-based, Canis lupus familiaris
NIH3T3 [12] = test: Anti-proliferative activity was evaluated by its ability to inhibit proliferation of murine NIH3T3 fibroblasts; na means Not active; format: functional, cell-based, Mus musculus
REF [13] = test: Anti-proliferative activity was evaluated by its ability to inhibit proliferation of rat embryonic fibroblasts (REF); na means Not active; format: functional, cell-based
[14] = target: T1, Cyclooxygenase (Homo sapiens); test: Half-maximal inhibition of the COX activity was measured by the direct analysis of the consumed O2 using isolated sheep seminal vesicles; na means Not active; format: functional; conditions: Ovis aries; target entry is the homologue from another species

pIC50 (SW480 [4]; Homo sapiens, SW480)	Inhibitory activity [5]	Inhibitory activity [7]	pIC50 (SW480 [4]; sw480)	Compound	pIC50 (MDCK [1]; Canis lupus familiaris, MDCK)	pIC50 (NIH3T3 [2]; Mus musculus, NIH3T3)	pIC50 (REF [3]; Rattus norvegicus, REF)	pIC50 (MDCK [6]; Canis lupus familiaris, MDCK)	pIC50 (MDCK [6]; mdck)	other results
3.40	30	0.24		CC1=C(CC(=O)O)c2cc(F)ccc2C1=Cc1ccoc1	4.30	3.77	4.52	3.52		
3.70	210	2.6		CSc1ccc(/C=C2/C(C)=C(CC(=O)O)c3cc(F)ccc32)cc1 [SULINDAC SULFIDE]	3.70	3.46	3.70	3.74		
	10	1.6		COc1ccc(C=C2C(C)=C(CC(=O)O)c3cc(F)ccc32)cc1	3.51	3.32	3.30	3.34		IC50 (SW480 [8]): Not Active
			4.15	CC1=C(CC(=O)O)c2cc(F)ccc2C1=Cc1ccc(CO)o1 [listing 1 of 3 here]					4.30	pIC50 (MDCK [1]; mdck): 3.92; pIC50 (NIH3T3 [2]; nih3t3): 3.31; pIC50 (REF [3]; ref): 4.10
3.49		0.03		CC1=C(CC(=O)O)c2cc(F)ccc2C1=Cc1cccs1	4.10	3.40	4.00	3.33		Inhibitory activity [9]: inactive
3.07				COc1ccccc1C=C1C(C)=C(CC(=O)O)c2cc(F)ccc21	3.44	3.30	3.70			
	45	570		CC1=C(CC(=O)O)c2cc(F)ccc2C1=Cc1ccc(CO)o1 [listing 2 of 3 here]						
			3.42	CC1=C(CC(=O)O)c2cc(F)ccc2C1=Cc1ccc(C)o1 [listing 1 of 2 here]		4.00	4.70		3.60	pIC50 (MDCK [1]; mdck): 3.51
3.44				COc1cccc(C=C2C(C)=C(CC(=O)O)c3cc(F)ccc32)c1	3.52	3.28	3.70	3.56		
			3.51	CC1=C(CC(=O)O)c2cc(F)ccc2C1=Cc1ccc(CO)o1 [listing 3 of 3 here]	3.89	3.35	4.05		3.60	
			4.10	CC1=C(CC(=O)O)c2cc(F)ccc2C1=Cc1ccc(C)o1 [listing 2 of 2 here]					4.22	pIC50 (MDCK [1]; mdck): 4.22; pIC50 (NIH3T3 [2]; nih3t3): 4.22; pIC50 (REF [3]; ref): 5.00
				CC1=C(CC(=O)O)c2cc(F)ccc2C1=Cc1ccc(S(=O)(=O)O)o1						IC50 (MDCK [10]): Not Active; IC50 (MDCK [11]): Not Active; IC50 (NIH3T3 [12]): Not Active; IC50 (REF [13]): Not Active; IC50 (SW480 [8]): Not Active
3.10				CC1=C(CC(=O)O)c2cc(F)ccc2C1=Cc1ccc([S+](C)[O-])cc1 (stereo unspecified) [SULINDAC]	3.49	3.70	4.00	3.52		Inhibitory activity [14]: inactive; Inhibitory activity [9]: inactive
